# Counter-ions that a name gives are not always drawn.
# Target: T1, murine MCHR (Mus musculus, UniProt Q8JZL2)
# T1 construct: expressed in transfected cells; host or cells: HEK293
# Test: Assay for release of intracellular calcium (FLIPR, Fluo-4), inhibition of MCH-induced Ca++ flux
# Type: cell-based
# Settings: test compound at a dose of 10 μM, HEK293 cells expressing the murine MCHR, read-out: inhibition of MCH (MCH induced Ca++ flux / fluorescence)
# Method: Assay for Release of Intracellular Calcium
# Activation of the melanin concentrating hormone receptor (MCHR) by MCH induces the release of Ca^++ from intracellular stores. This intracellular calcium release is measured using a fluorometric imaging plate reader (FLIPR™, Molecular Devices Corp.) in conjunction with the Ca^++-sensitive dye Fluo-4. Release of Ca^++ from intracellular stores causes an increase in fluorescence of the dye that is proportional to Ca^++ concentration. Briefly, the assays are performed as follows. HEK293 cells expressing the murine MCHR are plated overnight at 50,000 cells/well in 96-well plates. The following day, culture medium is removed and replaced with 100 μl/well of D-PBS (+glucose and sodium pyruvate) containing 2.5 μM Fluo-4AM (Molecular Probes), 0.01% Pluronic F-127 and 2.5 mM probenecid. Cells are loaded with the Fluo-4 dye for at least one hour at room temp. After loading, the cells are washed gently to remove extracellular dye and 100 μl of D-PBS (+glucose and sodium pyruvate) is added to each well. Test compounds are prepared at 40 μM in 4% DMSO. The cell plate is placed in the FLIPR™ and 50 μl/well of test compound is delivered. The calcium signal is followed for 3 minutes to assay for potential agonist activity by the test compounds. Then 50 μl/well of 12 nM mouse MCH (in D-PBS containing 0.1% BSA) is added and the ligand-induced calcium signal is followed for an additional 3 minutes. Antagonist activity as determined by the test compounds ability to inhibit MCH induced Ca^++ flux is calculated as % inhibition as described by the following formula: % inhibition=[1−((fTC−fB)÷(fMCH−fB))]×100, where fTC=MCH-induced fluorescence in the presence of test compound; fMCH=MCH-induced fluorescence in the absence of test compound; and fB=Baseline fluorescence.
# MCH (3 nM) usually elicits a response of 30,000-40,000 relative fluorescence units (RFU) with a baseline of about 1000 RFU. Fluo-4 fluorescence is measured at 488 nm, with an exposure of 0.40 sec. and F-stop=2.0 and the laser set at 0.40-0.60 W constant light output.
# T1 sequence (Q8JZL2 whole entry): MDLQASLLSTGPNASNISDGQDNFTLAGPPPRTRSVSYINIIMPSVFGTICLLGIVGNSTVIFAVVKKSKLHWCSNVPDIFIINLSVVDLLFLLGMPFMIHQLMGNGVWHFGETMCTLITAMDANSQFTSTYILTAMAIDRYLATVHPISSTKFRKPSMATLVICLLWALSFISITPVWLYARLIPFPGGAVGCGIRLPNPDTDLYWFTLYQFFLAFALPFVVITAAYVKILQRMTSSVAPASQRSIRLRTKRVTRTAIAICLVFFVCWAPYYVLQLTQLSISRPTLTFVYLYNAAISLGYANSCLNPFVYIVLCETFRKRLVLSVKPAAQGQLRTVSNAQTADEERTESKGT
row,Structure (SMILES),inhibition at 10 µM
1,"O=c1cc(NC2CCN(Cc3ccc4c(c3)OCO4)CC2)c2cc(Cl)ccc2n1Cc1ccccn1 [Compound V-2, 4-(1-Benzo[1,3]dioxol-5-ylmethyl-piperidin-4-ylamino)-6-chloro-1-pyridin-2-ylmethyl-1H-quinolin-2-one]",≥ 50%
2,"CN(C)C(=O)c1c(NC2CCN(Cc3ccc4c(c3)OCO4)CC2)c2cc(Br)ccc2n(C)c1=O [Compound V-42, 4-(1-Benzo[1,3]dioxol-5-ylmethyl-piperidin-4-ylamino)-6-bromo-1-methyl-2-oxo-1,2-dihydro-quinoline-3-carboxylic acid dimethylamide]",≥ 50%
3,"O=c1cc(NC2CCN(C/C=C/c3cccc(Cl)c3)CC2)c2ccccc2o1 [III-9, 4-{1-[3-(3-Chloro-phenyl)-allyl]-piperidin-4-ylamino}-chromen-2-one]",≥ 50%
4,"COc1ccc(CN2CCC(Nc3c(C#N)c(=O)n(C)c4ccc(Cl)cc34)CC2)cc1F [Compound V-32, 6-Chloro-4-[1-(3-fluoro-4-methoxy-benzyl)-piperidin-4-ylamino]-1-methyl-2-oxo-1,2-dihydro-quinoline-3-carbonitrile]",≥ 50%
5,"O=c1cc(NC2CCN(Cc3ccc4c(c3)OCO4)CC2)c2cc(C(F)(F)F)ccc2n1CC(F)(F)F [Compound V-58, 4-(1-Benzo[1,3]dioxol-5-ylmethyl-piperidin-4-ylamino)-1-(2,2,2-trifluoro-ethyl)-6-trifluoromethyl-1H-quinoline-2-one]",≥ 50%
6,"CC(c1ccc(O)c(F)c1)N1CCC(Nc2cc(=O)oc3ccc(Cl)cc23)CC1 (stereo not drawn) [II-113, 6-Chloro-4-{1-[1-(3-fluoro-4-hydroxy-phenyl)-ethyl]-piperidin-4-ylamino}-chromen-2-one]",≥ 50%
7,"CCCCOc1ccc(CN2CCC(Nc3cc(=O)oc4ccc(OC)cc34)CC2)cc1 [II-50, 4-[1-(4-Butoxy-benzyl)-piperidin-4-ylamino]-6methoxy-chromen-2-one trifluoroacetate]",≥ 50%
8,"O=c1cc(NC2CCN(Cc3ccc4ncccc4c3)CC2)c2cc(Cl)ccc2o1 [II-40, 6-Chloro-4-(1-quinolin-6-ylmethyl-piperidin-4-ylamino)-chromen-2-one]",≥ 50%
9,"Cc1ccc2c(c1)c(NC1CCN(Cc3ccc4ccccc4c3)CC1)cc(=O)n2C [Compound V-22, 1,6-Dimethyl-4-(1-naphthalen-2-ylmethyl-piperidin-4-ylamino)-1H-quinolin-2-one]",≥ 50%
10,"CCc1ccc2oc(=O)cc(NC3CCN(Cc4ccc5c(c4)OCO5)CC3)c2c1 [II-63, 4-(1-Benzo{1,3}dioxol-5-ylmethyl-piperidin-4-ylamino)-6-ethyl-chromen-2-one]",≥ 50%
11,"O=c1cc(NC2CCN(C/C=C/c3ccccc3F)CC2)c2cc(Cl)ccc2o1 [III-56, 6-Chloro-4-{1-[3-(2-fluoro-phenyl)-allyl]-piperidin-4-ylamino}-chromen-2-one]",≥ 50%
12,"COC(=O)c1c(NC2CCN(Cc3ccc4ccccc4c3)CC2)c2cc(Cl)ccc2n(C)c1=O [Compound V-30, 6-Chloro-1-methyl-4-(1-naphthalen-2-ylmethyl-piperidin-4-ylamino)-2-oxo-1,2-dihydro-quinoline-3-carboxylic acid methyl ester]",≥ 50%
13,"COc1ccc2oc(=O)cc(NC3CCN(Cc4ccc(C(=O)NCCc5ccccn5)cc4)CC3)c2c1 [II-83, 4-[4-(6-Methoxy-2-oxo-2H-chromen-4-ylamino)-piperidin-1-ylmethyl]-N-(2-pyridin-2-yl-ethyl)-benzamide; Double TFA Salt]",≥ 50%
14,"O=c1cc(NC2CCN(C/C=C/c3ccccc3Cl)CC2)c2cc(Cl)ccc2o1 [III-2, 6-Chloro-4-{1-[3-(2-chloro-phenyl)-allyl]-piperidin-4-ylamino}-chromen-2-one]",≥ 50%
15,"CCc1ccc2c(c1)c(NC1CCN(Cc3ccc4c(c3)OCO4)CC1)cc(=O)n2C [Compound V-13, 4-(1-Benzo[1,3]dioxol-5-ylmethyl-piperidin-4-ylamino)-6-ethyl-1-methyl-1H-quinolin-2-one]",≥ 50%
16,"C=Cc1ccc2oc(=O)cc(NC3CCN(Cc4ccc5c(c4)OCCO5)CC3)c2c1 [II-57, 4-{1-(2,3-Dihydrobenzo{1,4}dioxin-6-ylmethyl)-piperidin-4-ylamino}-6-vinyl-chromen-2-one]",≥ 50%
17,"COc1ccc2c(c1)c(NC1CCN(C/C=C/c3ccccc3)CC1)cc(=O)n2C [Compound V-14, 6-Methoxy-1-methyl-4-[1-(3-phenyl-allyl)-piperidin-4-ylamino]-1H-quinolin-2-one]",≥ 50%

row,Structure (SMILES),inhibition at 10 µM
1,"C[C@H](c1ccc2c(c1)OCO2)N1CCC(Nc2cc(=O)oc3ccc(Cl)cc23)CC1 [II-28, 4-[1-(1-Benzo[1,3]dioxol-5-yl-ethyl)-piperidin-4-ylamino]-6-chloro-chromen-2-one]",≥ 50%
2,"CCOc1cccc(CN2CCC(Nc3cc(=O)oc4ccc(OC)cc34)CC2)c1 [II-97, 4-[1-(3-Ethoxy-benzyl)-piperidin-4-ylamino]-6-methoxy-chromen-2-one trifluoroacetate]",≥ 50%
3,"COc1ccc2c(c1)c(NC1CCN(Cc3ccc4c(c3)OCO4)CC1)cc(=O)n2C [Compound V-8, 4-(1-Benzo[1,3]dioxol-5-ylmethyl-piperidin-4-ylamino)-6-methoxy-1-methyl-1H-quinolin 2-one]",≥ 50%
4,"Cc1ccc2oc(=O)cc(NC3CCN(C/C=C/c4ccccc4)CC3)c2c1 [III-6, 6-Methyl-4-[1-(3-phenyl-allyl)-piperidin-4-ylamino]-chromen-2-one]",≥ 50%
5,"Cc1ccc(CN2CCC(Nc3cc(=O)oc4ccc(Cl)cc34)CC2)cc1C [II-71, 6-Chloro-4-[1-(3,4-dimethyl-benzyl)-piperidin-4-ylamino]-chromen-2-one]",≥ 50%
6,"O=c1cc(NC2CCN(Cc3ccc4c(c3)OCO4)CC2)c2cccc3c2n1CCC3 [Compound V-36, 1-(1-Benzo[1,3]dioxol-5-ylmethyl-piperidin-4-ylamino)-6,7-dihydro-5H-pyrido[3,2,1-ij]quinolin-3-one]",≥ 50%
7,"CC(=O)Nc1c(NC2CCN(Cc3ccc4c(c3)OCO4)CC2)c2cc(Cl)ccc2oc1=O [II-42, N-[4-(1-Benzo[1,3]dioxol-5-ylmethyl-piperidin-4-ylamino)-6-chloro-2-oxo-2H-chromen-3-yl]-acetamide]",≥ 50%
8,"COc1ccc2oc(=O)cc(NC3CCN(Cc4ccc(C)cc4)CC3)c2c1 [II-34, 6-Methoxy-4-[1-(4-methyl-benzyl)-piperidin-4-ylamino]-chromen-2-one trifluoroacetate]",≥ 50%
9,"COc1ccc2oc(=O)cc(NC3CCN(Cc4ccc(OC(F)F)cc4)CC3)c2c1 [II-43, 4-[1-(4-Difluoromethoxy-benzyl)-piperidin-4-ylamino]-6-methoxy-chromen-2-one trifluoroacetate]",≥ 50%
10,"COc1ccc2oc(=O)cc(N[C@H]3CCN(Cc4ccc5c(c4)OCO5)C[C@H]3C)c2c1 (stereo in doubt) [II-53, 4-(1-Benzo[1,3]dioxol-5-ylmethyl-3-methyl-piperidin-4-ylamino)-6-methoxy-chromen-2-one]",≥ 50%
11,"Cc1cc2cc(CN3CCC(Nc4cc(=O)oc5ccc(Cl)cc45)CC3)ccc2o1 [II-61, 6-Chloro-4-[1-(2-methyl-benzofuran-5-ylmethyl)-piperidin-4-ylamino]-chromen-2-one]",≥ 50%
12,"COc1ccc2oc(=O)c(F)c(NC3CCN(Cc4ccc5c(c4)OCO5)CC3)c2c1 [II-26, 4-(1-Benzo{1,3}dioxol-5-ylmethyl-piperidin-4-ylamino)-3-fluoro-6-methoxychromene-2-one]",≥ 50%
13,"O=c1cc(NC2CCN(Cc3ccc4ccoc4c3)CC2)c2cc(Cl)ccc2o1 [II-36, 4-(1-Benzofuran-6-ylmethyl-piperidin-4-ylamino)-6-chloro-chromen-2-one]",≥ 50%
14,"C[C@@H](c1ccc2ccccc2c1)N1CCC(Nc2cc(=O)oc3ccc(Cl)cc23)CC1 [II-120, (S)-6-Chloro-4-[1-(1-naphthalen-2-yl-ethyl)-piperdin-4-ylamino]-chromen-2-one]",≥ 50%
15,"COc1ccc2oc(=O)cc(NC3CCN(Cc4ccc5ocnc5c4)CC3)c2c1 [II-44, 4-(1-Benzooxazol-5-ylmethyl-piperidin-4-ylamino)-6-methoxy-chromen-2-one]",≥ 50%
16,"O=c1cc(NC2CCN(Cc3ccc4c(c3)OCCCO4)CC2)c2cc(Cl)ccc2o1 [II-51, 6-Chloro-4-[1-(3,4-dihydro-2H-benzo[b][1,4]dioxepin-7-ylmethyl)-piperidin-4-ylamino]-chromen-2-one]",≥ 50%
